Test results published in patent publication EP0603240B1, “SAFENING HERBICIDAL PYRAZOLYLSULFONYLUREAS” (priority 1991, dated 1993).
Where two headings read alike, the source gives them in different places.

What was measured:
Format in all cases: in vivo
[1] = tested on: barnyardgrass (Echinochloa crusgalli); test: Example 10, Procedure II: Herbicide No. 1 + propachlor (No. 5) with antidotes; settings: no antidote
Description: (§1) Containers were filled and compacted with a fumigated silt loam top soil to a depth of about 1.3 cm from the top of the container. A first container was designated as an untreated control, a second container was designated as a herbicide control, and a third container was designated as a herbicide + antidote test container. Each of the containers was seeded with a crop species. A measured amount of herbicide dispersed or dissolved in acetone was applied to a measured quantity of soil. To this same quantity of soil treated with herbicide, there was added a measured amount of antidote dispersed or dissolved in acetone. The quantity of soil treated with the herbicide and antidote was thoroughly mixed to incorporate the herbicide and antidote in the soil uniformly. The seed bed in the third container of soil was covered with the soil treated with the herbicide and antidote and the container was leveled. For each test series, the seed beds of the first and second containers were likewise covered by soil layers. the cover layer of the first container was not treated with herbicide or antidote.
(§2) The containers were then placed on a bench in a greenhouse and sub-irrigated as required for the duration of the test. […] Plant response is measured in terms of percent injury. Antidote efficacy is indicated as the difference in plant injury by the herbicide(s) without the antidote and with the antidote.
(§3) This procedure is the same as Procedure I, but modified in the manner that after incorporation of the chemicals (herbicide and antidote) the containers with the covered seedbed were treated with an initial overhead irrigation equivalent to 0.6 cm rainfall, then subsequently sub-irrigated as required on greenhouse benches.
(§4) In the series of greenhouse tests described below, for routine screening purposes the herbicide/antidote compositions were tested in crop/weed combinations involving corn as the crop and either or both of the weeds barnyardgrass (Echinochloa crusgalli), a monocotyledonous weed, and velvetleaf (Abutilon theophrasti), a dicotyledonous weed. In the tables below, these weeds are indicated by the symbols "BYG" and "VL", respectively.
(§5) In this test, the safening effect of various antidotes on the herbicidal combination of Herbicide No. 1 and another α-chloroacetanilide co-herbicide, propachlor, (Herbicide No. 5) was investigated. Propachlor is the active ingredient in the commercial herbicide RAMROD®. Procedure II was also used in this test as in the preceding example.

[2] = tested on: velvetleaf (Abutilon theophrasti); test: as above; settings: no antidote
Description: as §1, §2, §3, §4, §5

[3] = tested on: corn; test: Example 3, Procedure I: antidotes against Herbicide No. 1; settings: no antidote
Procedure, shortened: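 Herbicide and antidote, each in acetone, mixed into a soil layer covering the seeded corn bed; untreated and herbicide-only controls run alongside. Greenhouse, sub-irrigated, barnyardgrass present; herbicide 4.48 down to 0.56 kg/ha. Percent injury scored; efficacy = injury without minus with antidote.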

[4] = tested on: corn; test: Example 2, Procedure II: dichloroacetamide antidotes against Herbicide No. 1; settings: Herb. No. 1 0.14 kg/ha, no antidote
Description: as §1, §2, §3
In this example, a plurality of dichloroacetamide antidotes were tested for their safening efficacy against Herbicide No. 1 in corn, using Procedure II. In this test the weed was velvetleaf; barnyardgrass was not present in this test.

[5] = tested on: Giant foxtail (Setaria fabergi); test: Example 24, Procedure II: Herbicide No. 1 + co-herbicides Nos. 4, 6, 7, 12 with Antidote Nos. 15 and 17-21; settings: Setaria
Procedure, shortened: (§6)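 Greenhouse pots, herbicide No. 1 plus co-herbicides and antidote in acetone incorporated into silt loam soil covering the corn seed bed, with giant foxtail and velvetleaf; initial overhead irrigation equal to 0.6 cm rainfall, then sub-irrigation. Antidote at 2.24 kg/ha; percent injury read 13 days after application, duplicate average.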

[6] = tested on: corn; test: as above; settings: Zea mays
Procedure, shortened: as §6

[7] = tested on: corn; test: Example 8, Procedure II: Herbicide No. 1 + butachlor (No. 9) with antidotes
Description: as §1, §2, §3
In this test, the efficacy of the same five antidotes used in Examples 6 and 7 was investigated in compositions comprising Herbicide No. 1 and as a co-herbicide, butachlor (Herbicide No. 9), active ingredient in MACHETE® herbicide, a leading commercial rice herbicide. The test procedure used in this example was the same as that in Examples 6 and 7.

[8] = Herbicide No.1 0.14 kg/ha alone
[9] = Herbicide No.1 0.56 kg/ha alone

Which results are given for `COC(=O)c1c(Cl)nn(C)c1S(=O)(=O)NC(=O)Nc1nc(OC)cc(OC)n1` [Herbicide No. 1]?
% Injury BYG [1, 8]: 75%; % Injury BYG [1, 9]: 80%; % Injury VL [2, 8]: 70%; % Injury VL [2, 9]: 75%; % Injury Corn ([3]; Herb. No. 1 0.56 kg/ha): 7%; % Injury Corn ([3]; Herb. No. 1 1.12 kg/ha): 13%; % Injury Corn ([3]; Herb. No. 1 2.24 kg/ha): 38%; % Injury Corn ([3]; Herb. No. 1 4.48 kg/ha): 60%; % Injury Corn [4]: 10%; inhibition at 1120 g/ha ([5]; read-out: % Inhibition GFT, Herb. No. 1 0.07 Kg/ha + Co-Herb. No. 4 1.12 Kg/ha, no antidote): 70%; inhibition at 140 g/ha ([5]; read-out: % Inhibition GFT, Herb. No. 1 0.07 Kg/ha + Co-Herb. No. 6 0.14 Kg/ha, no antidote): 100%; inhibition at 280 g/ha ([5]; read-out: % Inhibition GFT, Herb. No. 1 0.07 Kg/ha + Co-Herb. No. 7 0.28 Kg/ha, no antidote): 100%; inhibition at 280 g/ha ([5]; read-out: % Inhibition GFT, Herb. No. 1 0.07 Kg/ha + Co-Herb. No. 12 0.28 Kg/ha, no antidote): 99%; inhibition at 1120 g/ha ([5]; read-out: % Inhibition GFT, Herb. No. 1 0.14 Kg/ha + Co-Herb. No. 4 1.12 Kg/ha, no antidote): 80%; inhibition at 140 g/ha ([5]; read-out: % Inhibition GFT, Herb. No. 1 0.14 Kg/ha + Co-Herb. No. 6 0.14 Kg/ha, no antidote): 100%; inhibition at 280 g/ha ([5]; read-out: % Inhibition GFT, Herb. No. 1 0.14 Kg/ha + Co-Herb. No. 7 0.28 Kg/ha, no antidote): 100%; inhibition at 280 g/ha ([5]; read-out: % Inhibition GFT, Herb. No. 1 0.14 Kg/ha + Co-Herb. No. 12 0.28 Kg/ha, no antidote): 99%; inhibition at 1120 g/ha ([5]; read-out: % Inhibition GFT, Herb. No. 1 0.28 Kg/ha + Co-Herb. No. 4 1.12 Kg/ha, no antidote): 85%; inhibition at 140 g/ha ([5]; read-out: % Inhibition GFT, Herb. No. 1 0.28 Kg/ha + Co-Herb. No. 6 0.14 Kg/ha, no antidote): 100%; inhibition at 280 g/ha ([5]; read-out: % Inhibition GFT, Herb. No. 1 0.28 Kg/ha + Co-Herb. No. 7 0.28 Kg/ha, no antidote): 100%; inhibition at 280 g/ha ([5]; read-out: % Inhibition GFT, Herb. No. 1 0.28 Kg/ha + Co-Herb. No. 12 0.28 Kg/ha, no antidote): 99%; inhibition at 1120 g/ha ([5]; read-out: % Inhibition GFT, Herb. No. 1 0.56 Kg/ha + Co-Herb. No. 4 1.12 Kg/ha, no antidote): 75%; inhibition at 140 g/ha ([5]; read-out: % Inhibition GFT, Herb. No. 1 0.56 Kg/ha + Co-Herb. No. 6 0.14 Kg/ha, no antidote): 100%; inhibition at 280 g/ha ([5]; read-out: % Inhibition GFT, Herb. No. 1 0.56 Kg/ha + Co-Herb. No. 7 0.28 Kg/ha, no antidote): 99%; inhibition at 280 g/ha ([5]; read-out: % Inhibition GFT, Herb. No. 1 0.56 Kg/ha + Co-Herb. No. 12 0.28 Kg/ha, no antidote): 99%; inhibition at 1120 g/ha ([6]; read-out: % Inhibition Corn, Herb. No. 1 0.07 Kg/ha + Co-Herb. No. 4 1.12 Kg/ha, no antidote): 10%; inhibition at 140 g/ha ([6]; read-out: % Inhibition Corn, Herb. No. 1 0.07 Kg/ha + Co-Herb. No. 6 0.14 Kg/ha, no antidote): 5%; inhibition at 280 g/ha ([6]; read-out: % Inhibition Corn, Herb. No. 1 0.07 Kg/ha + Co-Herb. No. 7 0.28 Kg/ha, no antidote): 5%; inhibition at 280 g/ha ([6]; read-out: % Inhibition Corn, Herb. No. 1 0.07 Kg/ha + Co-Herb. No. 12 0.28 Kg/ha, no antidote): 5%; inhibition at 1120 g/ha ([6]; read-out: % Inhibition Corn, Herb. No. 1 0.14 Kg/ha + Co-Herb. No. 4 1.12 Kg/ha, no antidote): 20%; inhibition at 140 g/ha ([6]; read-out: % Inhibition Corn, Herb. No. 1 0.14 Kg/ha + Co-Herb. No. 6 0.14 Kg/ha, no antidote): 20%; inhibition at 280 g/ha ([6]; read-out: % Inhibition Corn, Herb. No. 1 0.14 Kg/ha + Co-Herb. No. 7 0.28 Kg/ha, no antidote): 15%; inhibition at 280 g/ha ([6]; read-out: % Inhibition Corn, Herb. No. 1 0.14 Kg/ha + Co-Herb. No. 12 0.28 Kg/ha, no antidote): 10%; inhibition at 1120 g/ha ([6]; read-out: % Inhibition Corn, Herb. No. 1 0.28 Kg/ha + Co-Herb. No. 4 1.12 Kg/ha, no antidote): 25%; inhibition at 140 g/ha ([6]; read-out: % Inhibition Corn, Herb. No. 1 0.28 Kg/ha + Co-Herb. No. 6 0.14 Kg/ha, no antidote): 25%; inhibition at 280 g/ha ([6]; read-out: % Inhibition Corn, Herb. No. 1 0.28 Kg/ha + Co-Herb. No. 7 0.28 Kg/ha, no antidote): 30%; inhibition at 280 g/ha ([6]; read-out: % Inhibition Corn, Herb. No. 1 0.28 Kg/ha + Co-Herb. No. 12 0.28 Kg/ha, no antidote): 30%; inhibition at 1120 g/ha ([6]; read-out: % Inhibition Corn, Herb. No. 1 0.56 Kg/ha + Co-Herb. No. 4 1.12 Kg/ha, no antidote): 40%; inhibition at 140 g/ha ([6]; read-out: % Inhibition Corn, Herb. No. 1 0.56 Kg/ha + Co-Herb. No. 6 0.14 Kg/ha, no antidote): 40%; inhibition at 280 g/ha ([6]; read-out: % Inhibition Corn, Herb. No. 1 0.56 Kg/ha + Co-Herb. No. 7 0.28 Kg/ha, no antidote): 45%; inhibition at 280 g/ha ([6]; read-out: % Inhibition Corn, Herb. No. 1 0.56 Kg/ha + Co-Herb. No. 12 0.28 Kg/ha, no antidote): 45%; % Injury Corn ([7]; Herbicide No.1 0.14 + No.9 2.24 kg/ha, no antidote): 25%; % Injury Corn [7, 8]: 10%; % Injury Corn ([7]; Herbicide No.1 0.56 + No.9 (butachlor) 2.24 kg/ha, no antidote): 65%; % Injury Corn [7, 9]: 60%
